# Measurements: patent publication US7897834B2, “Mutation in the rat adenomatous polyposis coli gene within the human mutation hotspot region” (Wisconsin Alumni Research Foundation, priority 2005, dated 2011)
# Experiments:
# [1] = test system: intestinal tumors in F344 Pirc rats; test: Effect of celecoxib on intestinal tumor multiplicity in F344 Pirc rats (screening for carcinogenesis inhibitory activity); type: in vivo, rat; conditions: for Average number of tumors in large intestine / Average number of tumors in small intestine / Average total number of tumors: celecoxib 1200 ppm diet from about 40 days of age, necropsy at about 22 weeks, n=9
# Procedure: Shown in Table 5 is an example of the use of a Pirc rat for screening a compound for carcinogenesis inhibitory activity. The effect of celecoxib on intestinal tumor multiplicity in F344 Pirc rats was tested. At about 40 days of age, Pirc rats backcrossed with F344-Tac and F334 control rats were fed celecoxib at 1200 ppm diet. The rats were killed at about 22 weeks of age (about 150-160 days of age). Necropsy was performed to identify 1-2 mm tumors in the intestines.
# [2] = test system: intestinal tumors in F344-Pirc rats; test: Tumor multiplicities in F344-Pirc rats after somatic ENU treatment; type: in vivo, rat; conditions: ENU treated, male, age 7 mo
# Procedure: Somatic ENU treatment. ENU was dissolved in 95% EtOH and measured with a spectrophotometer at […] to obtain a final concentration of 1 mg/ml. Either the ENU solution or 95% EtOH was injected intraperitoneally into 13-20 day old rats at 18 or 40 mg/kg of body mass. Treated animals were isolated in a laminar flow hood for at least three days before being returned to normal housing.
# Tumor multiplicities were determined for both adenomas and microadenomas (neoplasms less than 0.5 mm in diameter). A significant dependence on gender was observed, with males developing more of both types of tumor in all regions of the intestinal tract. There was also a monotonic increase in tumor multiplicity with age, reaching an average of 14 colonic adenomas in males and 9 in females over eight months of age (Tables 3 and 4).
# Shown in Table 3 are the tumor multiplicities in Pirc rats. Colonic microadenoma multiplicities could not be accurately measured without histopathological confirmation and were excluded from these analyses. Neoplasms less than 0.5 mm in size were classified as microadenomas.
# [3] = Female Pirc rat, celecoxib 1200 ppm diet vs control diet
# [4] = Male Pirc rat, celecoxib 1200 ppm diet vs control diet
# [5] = N=3, ENU intraperitoneally at 18 or 40 mg/kg in 13-20 day old rats
SMILES,Average number of tumors in large intestine ([1]; Female Pirc rat),Average number of tumors in small intestine ([1]; Female Pirc rat),Average total number of tumors ([1]; Female Pirc rat),"Relative reduction in number of tumors (large intestine) [1, 3] [%]","Relative reduction in number of tumors (total) [1, 3] [%]",Average number of tumors in large intestine ([1]; Male Pirc rat),Average number of tumors in small intestine ([1]; Male Pirc rat),Average total number of tumors ([1]; Male Pirc rat),"Relative reduction in number of tumors (large intestine) [1, 4] [%]","Relative reduction in number of tumors (small intestine) [1, 4] [%]","Relative reduction in number of tumors (total) [1, 4] [%]","Colonic polyps, mean ± SD [2, 5]","Lesions in small intestine, mean ± SD: Adenomas [2, 5]","Lesions in small intestine, mean ± SD: Microadenomas ([2]; N=3, neoplasms less than 0.5 mm)"
"Cc1ccc(-c2cc(C(F)(F)F)nn2-c2ccc(S(N)(=O)=O)cc2)cc1 [Celecoxib, celecoxib]",0.1,0.9,1.0,93,50,1.2,1.3,2.6,61,82,76,,,
"CCN(N=O)C(N)=O [ENU, N-ethyl-N-nitrosourea]",,,,,,,,,,,,79 ± 11,57 ± 13,665 ± 103
